The test system of one experiment is HeLa. Description: Antiproliferative activity against human HeLa cells assessed as cell growth inhibition incubated for 48 hrs by MTT assay. The experiment is classed as functional, cell-based. For orientation: Tetrazolium assays rely on reduction of a dye to a coloured formazan, in cell work by metabolically active cells.
For another experiment, the system named is MCF7. Description: cells. The conditions noted are these: Homo sapiens, MCF7, 48 h.
A further experiment concerns BXPC-3. The experiment can be described thus: Antiproliferative activity against human BXPC-3 cells assessed as cell growth inhibition incubated for 48 hrs by MTT assay. The experiment is classed as functional, cell-based. To be noted: BXPC-3, 48 h.
The next experiment deals with A549. Description: Antiproliferative activity against human A549 cells assessed as cell growth inhibition incubated for 48 hrs by MTT assay. Type of experiment: functional, cell-based. To be noted: A549, 48 h.
Another experiment deals with KP-4. Description: Antiproliferative activity against human KP-4 cells assessed as cell growth inhibition incubated for 48 hrs by MTT assay. Type of experiment: functional, cell-based. The conditions noted are these: KP-4, 48 h.
A further experiment addresses Tubulin (Sus scrofa, UniProt P02554+P02550). The experiment can be described thus: Inhibition of porcine brain tubulin polymerization measured for 30 mins in presence of GTP by microplate reader assay. The experiment is classed as tissue-based.
Experiment [1] has as its target T1, Tyrosine-protein kinase JAK2 (Homo sapiens, UniProt O60674). The experiment can be described thus: Inhibition of JAK2 (unknown origin) using Poly-(Glu,Tyr 4:1) peptide as substrate in presence of ATP by ADP-Glo reagent based assay. For orientation: ADP-Glo turns the ADP formed in a reaction into a luminescent signal.
Experiment [2] concerns the target T1, Tyrosine-protein kinase JAK2. The experiment can be described thus: Inhibition of JAK2 (unknown origin) using Poly-(Glu,Tyr 4:1) peptide as substrate at 1 uM in presence of ATP by ADP-Glo reagent based assay relative to control.
Experiment [3] deals with Tubulin beta (Homo sapiens) (UniProt P68371+Q9H4B7+Q13509+P04350+Q3ZCM7+P07437+Q13885+Q9BVA1+Q9BUF5+A6NNZ2). Description: Binding affinity to beta-tubulin colchicine binding site in human A549 cells assessed as inhibition of EBI-beta-tubulin adduct band formation at 5 to 25 uM preincubated for 2 hrs followed by EBI addition measured after 1.5 hrs by EBI competition based Western blotting analysis. The experiment is classed as cell-based. The conditions noted are these: dose 5-25 µM.

Experiment [4] can be described thus: Antiproliferative activity against human HCT-8/VCR cells assessed as cell growth inhibition incubated for 48 hrs by MTT assay. Type of experiment: functional, cell-based.
A short description of experiment [5]: Resistance index, ratio of IC50 for antiproliferative activity against human HCT-8/VCR cells to IC50 for antiproliferative activity against human HCT-8 cells. The experiment is classed as functional.
Another experiment deals with HCT-8. The experiment can be described thus: Antiproliferative activity against human HCT-8 cells assessed as cell growth inhibition incubated for 48 hrs by MTT assay. Type of experiment: functional, cell-based. To be noted: HCT-8, 48 h.
A further experiment relates to A2780/Taxol. Description: Antiproliferative activity against human A2780T cells assessed as cell growth inhibition incubated for 48 hrs by MTT assay. The experiment is classed as functional, cell-based.

The source made the active and inactive calls. The rule behind the calls is not given here.

The record followed here is ChEMBL document CHEMBL5390242, “Design, Synthesis, and Antitumor Efficacy of Substituted 2-Amino[1,2,4]triazolopyrimidines and Related Heterocycles as Dual Inhibitors for Microtubule Polymerization and Janus Kinase 2” (J Med Chem, 2023).

T1 sequence (O60674 whole entry): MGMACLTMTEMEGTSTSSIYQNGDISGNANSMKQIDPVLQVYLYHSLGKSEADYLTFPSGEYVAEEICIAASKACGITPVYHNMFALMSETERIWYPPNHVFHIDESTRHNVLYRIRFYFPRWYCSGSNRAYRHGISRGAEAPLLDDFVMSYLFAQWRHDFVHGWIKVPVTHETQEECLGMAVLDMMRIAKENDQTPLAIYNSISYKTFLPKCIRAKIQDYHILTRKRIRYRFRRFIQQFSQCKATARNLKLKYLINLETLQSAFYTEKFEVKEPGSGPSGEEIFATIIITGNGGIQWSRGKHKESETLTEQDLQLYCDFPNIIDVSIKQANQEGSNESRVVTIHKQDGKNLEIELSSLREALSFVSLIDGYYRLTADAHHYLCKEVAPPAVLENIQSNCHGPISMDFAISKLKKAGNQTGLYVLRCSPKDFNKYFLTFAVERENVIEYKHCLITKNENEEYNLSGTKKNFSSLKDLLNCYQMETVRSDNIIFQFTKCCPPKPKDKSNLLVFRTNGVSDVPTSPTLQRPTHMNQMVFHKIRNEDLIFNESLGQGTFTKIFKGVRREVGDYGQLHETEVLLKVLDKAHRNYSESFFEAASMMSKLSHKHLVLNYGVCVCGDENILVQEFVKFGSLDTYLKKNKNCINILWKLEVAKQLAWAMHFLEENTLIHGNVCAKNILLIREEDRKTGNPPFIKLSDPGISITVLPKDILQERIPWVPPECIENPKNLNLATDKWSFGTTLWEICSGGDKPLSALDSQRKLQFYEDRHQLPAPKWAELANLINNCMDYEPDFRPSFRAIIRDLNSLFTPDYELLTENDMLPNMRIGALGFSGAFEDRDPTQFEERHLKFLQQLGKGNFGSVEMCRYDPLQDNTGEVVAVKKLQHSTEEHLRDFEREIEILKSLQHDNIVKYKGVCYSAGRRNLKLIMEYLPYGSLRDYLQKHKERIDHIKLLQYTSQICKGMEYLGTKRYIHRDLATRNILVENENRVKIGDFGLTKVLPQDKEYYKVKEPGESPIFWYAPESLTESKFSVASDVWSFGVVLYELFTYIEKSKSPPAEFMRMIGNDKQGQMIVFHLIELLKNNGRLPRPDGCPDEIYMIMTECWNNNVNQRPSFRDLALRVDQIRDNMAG
Description for MCF7: Antiproliferative activity against human MCF7 cells assessed as cell growth inhibition incubated for 48 hrs by MTT assay

By IC50 is commonly meant the point on the concentration scale where inhibition reaches its midpoint. For the compound `COCOc1cc(Nc2nc3ccnc(-c4cc(OC)c(OC)c(OC)c4)n3n2)ccc1C`, the IC50 in the experiment with HeLa, in the experiment with MCF7, in the experiment on BXPC-3, with A549 and with KP-4 was greater than 10000 nM each time.

Consider `COc1cc(Nc2nc3ccnc(-c4cccc5[nH]ccc45)n3n2)cc(OC)c1OC`, for which the half-inhibitory concentration (IC50) amounted to 982 nM with HeLa; 267 nM in the experiment with MCF7; 692 nM with BXPC-3; 1860 nM in the experiment with A549; 714 nM in the experiment on KP-4.

For `COc1cc(-c2ccnc3nc(Nc4cccc5c4ccn5C)nn23)cc(OC)c1OC`, the half-inhibitory concentration (IC50) with HeLa is 80 nM; in the experiment with MCF7, 26 nM; with BXPC-3 it was 18 nM; in the experiment on A549, 13 nM; in the experiment on KP-4 it was 36 nM.

A word on the inhibition: it is the relative decrease from the control value, in per cent. On to `COc1cc(-c2nccc3nc(Nc4ccc5[nH]ccc5c4)nn23)cc(OC)c1OC`, for which the half-inhibitory concentration (IC50) at Tubulin is 8800 nM; with HeLa, 131 nM; in the experiment with MCF7, 36 nM; in the experiment on BXPC-3 it was 20 nM; in experiment [1] it was 90 nM; with A549, 81 nM. Also, the concentration for half-maximal inhibition (IC50) with KP-4 came to 352 nM. In experiment [2], the inhibition was 96%.

For the compound `COc1cc(-c2nccc3nc(Nc4ccc5cc[nH]c5c4)nn23)cc(OC)c1OC`, the IC50 in the experiment with HeLa came out at 209 nM; with MCF7, 256 nM; in the experiment with BXPC-3, 107 nM; in the experiment with A549, 85 nM; with KP-4 it was 610 nM. The inhibition in [2] worked out at 29%.

With `COc1cc(-c2nccc3nc(Nc4ccc(C)c(O)c4)nn23)cc(OC)c1OC`, the IC50 in the experiment on HeLa worked out at 312 nM; in the experiment with MCF7 it was 326 nM; with BXPC-3, 355 nM; with A549, 354 nM; with KP-4, 2180 nM. Besides, the inhibition in experiment [2] turned out to be 46%.

Regarding `CC[C@]1(O)C[C@H]2CN(CCc3c([nH]c4ccccc34)[C@@](C(=O)OC)(c3cc4c(cc3OC)N(C=O)[C@H]3[C@@](O)(C(=O)OC)[C@H](OC(C)=O)[C@]5(CC)C=CCN6CC[C@]43[C@@H]65)C2)C1` [VINCRISTINE], in experiment [3], the outcome was inactive. In addition, the 50% inhibitory concentration (IC50) in experiment [4] was found to be 2920 nM; in the experiment on HCT-8, 173 nM. Also, the “Ratio IC50” value in experiment [5] stood at 16.9.

As for `COc1cc(-c2nccc3nc(Nc4ccc5c(ccn5C)c4)nn23)cc(OC)c1OC`, the IC50 on Tubulin stood at 15300 nM; in the experiment on HeLa, 202 nM; in the experiment on MCF7, 64 nM; with BXPC-3, 40 nM; in experiment [1], 544 nM; in the experiment with A549, 92 nM. The IC50 in the experiment on KP-4 was found to be 938 nM. The inhibition in [2] was 77%.

For the compound `COc1cc(-c2nccc3nc(Nc4cccc5c4ccn5C)nn23)cc(OC)c1OC`, the IC50 was determined as 1600 nM at Tubulin; 29 nM with HeLa; 46 nM with MCF7; 16 nM in the experiment on BXPC-3; 705 nM in experiment [1]; 13 nM in the experiment with A549. Also, the IC50 in the experiment on KP-4 was 40 nM. In addition, the inhibition in [2] stood at 56%.

Consider `COCOc1cc(Nc2nc3ccnc(-c4cc(OC)c(OC)c(OC)c4)n3n2)ccc1OC`, for which the concentration for half-maximal inhibition (IC50) with HeLa is greater than 10000 nM; with MCF7 it was 1500 nM; in the experiment with BXPC-3, 3960 nM; in the experiment on A549, greater than 10000 nM; in the experiment on KP-4, greater than 10000 nM.

With `COc1cc(-c2cccc3nc(Nc4cccc5[nH]ccc45)nn23)cc(OC)c1OC`, the IC50 in the experiment on HeLa was 247 nM; in the experiment with MCF7, 72 nM; with BXPC-3, 29 nM; in the experiment with A549, 64 nM; with KP-4 it was 259 nM.

As to `COc1cc(-c2nccc3nc(Nc4ccc5c(c4)c4ccccc4n5C)nn23)cc(OC)c1OC`, the half-maximal inhibitory concentration (IC50) with HeLa is greater than 10000 nM; in the experiment on MCF7 it was greater than 10000 nM; with BXPC-3, greater than 10000 nM; in the experiment on A549, 996 nM; in the experiment with KP-4, 2120 nM.

For `COc1ccc(Nc2nc3ccnc(-c4cc(OC)c(OC)c(OC)c4)n3n2)cc1N`, the IC50 is 4200 nM at Tubulin; 117 nM with HeLa; 189 nM in the experiment with MCF7; 176 nM with BXPC-3; 326 nM in experiment [1]; 201 nM in the experiment with A549. Also, the IC50 with KP-4 was determined as 1800 nM. The inhibition in experiment [2] stood at 86%.

With `COc1cc(-c2cncc3nc(Nc4cccc5c4ccn5C)nn23)cc(OC)c1OC`, the IC50 with HeLa worked out at 59 nM; in the experiment on MCF7, 25 nM; in the experiment on BXPC-3, 38 nM; in the experiment with A549, 7150 nM; in the experiment on KP-4 it was 106 nM.

As to `COc1cc(-c2nccc3nc(Nc4cccc5ccn(C)c45)nn23)cc(OC)c1OC`, the IC50 in the experiment with HeLa, in the experiment on MCF7, with BXPC-3, in the experiment with A549 and in the experiment on KP-4 was greater than 10000 nM in each case.

Turning to `COc1cc(-c2cncc3nc(Nc4cccc5[nH]ccc45)nn23)cc(OC)c1OC`, the IC50 in the experiment on HeLa was determined as 41 nM; in the experiment on MCF7, 26 nM; with BXPC-3, 88 nM; in the experiment with A549 it was 2530 nM; with KP-4, 431 nM.

As to `COc1ccc(Nc2nc3ccnc(-c4cc(OC)c(OC)c(OC)c4)n3n2)cc1O`, the half-inhibitory concentration (IC50) in the experiment on HeLa turned out to be 1060 nM; in the experiment with MCF7, 363 nM; with BXPC-3, 205 nM; in the experiment on A549, 502 nM; in the experiment on KP-4, 3150 nM. The inhibition in experiment [2] was found to be 46%.

Regarding `COc1cc(-c2nccc3nc(Nc4cccc5[nH]c6ccccc6c45)nn23)cc(OC)c1OC`, the half-maximal inhibitory concentration (IC50) in the experiment with HeLa, in the experiment on MCF7, with BXPC-3, with A549 and in the experiment with KP-4 was greater than 10000 nM each time.

Regarding `COc1ccc(-c2ccc3nnc(Nc4cc(OC)c(OC)c(OC)c4)n3c2)cc1O`, the half-maximal inhibitory concentration (IC50) was 11300 nM in the experiment on HeLa; 3500 nM in the experiment on MCF7; 5960 nM in the experiment with BXPC-3; 3940 nM with A549; 4670 nM in the experiment on KP-4.

Regarding `COc1cc(-c2nccc3nc(Nc4ccc5ccn(C)c5c4)nn23)cc(OC)c1OC`, the IC50 is 2170 nM in the experiment on HeLa; 280 nM in the experiment with MCF7; 630 nM in the experiment on BXPC-3; greater than 10000 nM in the experiment with A549; 7160 nM in the experiment with KP-4. Further, the inhibition in experiment [2] is 26%.

For the compound `COc1cc(-c2nccc3nc(Nc4ccc5c6ccccc6n(C)c5c4)nn23)cc(OC)c1OC`, the 50% inhibitory concentration (IC50) in the experiment on HeLa, in the experiment with MCF7, in the experiment with BXPC-3, in the experiment with A549 and in the experiment with KP-4 was greater than 10000 nM throughout.

Turning to `COc1ccc(Nc2nc3ccnc(-c4cc(OC)c(OC)c(OC)c4)n3n2)cc1[N+](=O)[O-]`, the IC50 stood at 593 nM in the experiment on HeLa; 951 nM with MCF7; 1420 nM in the experiment with BXPC-3; 2400 nM in the experiment with A549; 5460 nM in the experiment with KP-4.

In the case of `COc1cc(-c2nccc3nc(Nc4cccc5cc[nH]c45)nn23)cc(OC)c1OC`, the IC50 in the experiment on HeLa was 2580 nM; in the experiment with MCF7 it was 325 nM; in the experiment on BXPC-3, 2410 nM; in the experiment on A549, 257 nM; in the experiment with KP-4 it was 1200 nM. In addition, the inhibition in [2] worked out at 1.7%.

On to `COc1cc(-c2ccnc3nc(Nc4cccc5[nH]ccc45)nn23)cc(OC)c1OC`, for which the IC50 stood at 166 nM with HeLa; 35 nM in the experiment on MCF7; 23 nM in the experiment on BXPC-3; 85 nM in the experiment on A549; 70 nM in the experiment on KP-4.

As for `COc1cc(-c2nccc3nc(Nc4ccc5c(c4)[nH]c4ccccc45)nn23)cc(OC)c1OC`, the IC50 in the experiment with HeLa, in the experiment with MCF7, in the experiment on BXPC-3, in the experiment on A549 and with KP-4 was greater than 10000 nM each time.

Regarding `CC(=O)O[C@H]1C(=O)[C@@]2(C)[C@H]([C@H](OC(=O)c3ccccc3)[C@]3(O)C[C@H](OC(=O)[C@H](O)[C@@H](NC(=O)c4ccccc4)c4ccccc4)C(C)=C1C3(C)C)[C@]1(OC(C)=O)CO[C@@H]1C[C@@H]2O` [PACLITAXEL], the IC50 in the experiment with A2780/Taxol came to 319 nM; in the experiment on HeLa, 7 nM; with MCF7, 7 nM; in the experiment with BXPC-3 it was 11 nM; in the experiment on KP-4, 7 nM.
